Measured values reported in ChEMBL document CHEMBL3044672, “N9- and N7-(Chloromethyl Phenymethyl)Chloropurine Derivatives from , '-Dichloroxylenes: Synthesis and Anticancer Activity” (2005).

How the values were obtained:
Format in all cases: functional
[1] = tested on: MDA-MB-435; assay: Cytotoxicity against Homo sapiens (human) MDA-MB-435 cells after 48 hr by sulforhodamine B assay; conditions: MDA-MB-435, 48 h
[2] = tested on: NCI-H522; assay: Cytotoxicity against Homo sapiens (human) NCI-H522 cells after 48 hr by sulforhodamine B assay; conditions: NCI-H522, 48 h
[3] = tested on: HOP-92; assay: Cytotoxicity against Homo sapiens (human) HOP92 cells after 48 hr by sulforhodamine B assay; conditions: HOP-92, 48 h
[4] = tested on: UACC-257; assay: Cytotoxicity against Homo sapiens (human) UACC257 cells after 48 hr by sulforhodamine B assay; conditions: UACC-257, 48 h
[5] = tested on: U-251; assay: Cytotoxicity against Homo sapiens (human) U251 cells after 48 hr by sulforhodamine B assay; conditions: U-251, 48 h
[6] = Cytotoxicity against Homo sapiens (human) NCI-ADR-RES cells after 48 hr by sulforhodamine B assay
[7] = tested on: SNB-75; assay: Cytotoxicity against Homo sapiens (human) SNB75 cells after 48 hr by sulforhodamine B assay; conditions: SNB-75, 48 h
[8] = tested on: Hs-578T; assay: Cytotoxicity against Homo sapiens (human) Hs 578T cells after 48 hr by sulforhodamine B assay
[9] = tested on: OVCAR-5; assay: Cytotoxicity against Homo sapiens (human) OVCAR5 cells after 48 hr by sulforhodamine B assay; conditions: OVCAR-5, 48 h
[10] = tested on: TK-10; assay: Cytotoxicity against Homo sapiens (human) TK10 cells after 48 hr by sulforhodamine B assay; conditions: TK-10, 48 h
[11] = tested on: NCI-H460; assay: Cytotoxicity against Homo sapiens (human) NCI-H460 cells after 48 hr by sulforhodamine B assay; conditions: NCI-H460, 48 h
[12] = tested on: SF-268; assay: Cytotoxicity against Homo sapiens (human) SF268 cells after 48 hr by sulforhodamine B assay; conditions: SF-268, 48 h
[13] = tested on: SN12C; assay: Cytotoxicity against Homo sapiens (human) SN12C cells after 48 hr by sulforhodamine B assay
[14] = tested on: BT-549; assay: Cytotoxicity against Homo sapiens (human) BT549 cells after 48 hr by sulforhodamine B assay; conditions: BT-549, 48 h
[15] = tested on: MCF7; assay: Cytotoxicity against Homo sapiens (human) MCF7 cells after 48 hr by sulforhodamine B assay; conditions: MCF7, 48 h
[16] = tested on: CAKI-1; assay: Cytotoxicity against Homo sapiens (human) Caki1 cells after 48 hr by sulforhodamine B assay; conditions: CAKI-1, 48 h
[17] = tested on: SNB-19; assay: Cytotoxicity against Homo sapiens (human) SNB19 cells after 48 hr by sulforhodamine B assay; conditions: SNB-19, 48 h
[18] = tested on: K562; assay: Cytotoxicity against Homo sapiens (human) K562 cells after 48 hr by sulforhodamine B assay; conditions: K562, 48 h
[19] = tested on: HT-29; assay: Cytotoxicity against Homo sapiens (human) HT-29 cells after 48 hr by sulforhodamine B assay; conditions: HT-29, 48 h
[20] = tested on: MCF7; assay: Cytotoxicity against Homo sapiens (human) MCF7 cells assessed as cell growth at 10^-4 M after 48 hr by Alamar blue assay; conditions: MCF7, 48 h, read-out: Activity
[21] = tested on: COLO 205; assay: Cytotoxicity against Homo sapiens (human) COLO205 cells after 48 hr by sulforhodamine B assay; conditions: COLO 205, 48 h
[22] = tested on: NCI-H23; assay: Cytotoxicity against Homo sapiens (human) NCI-H23 cells after 48 hr by sulforhodamine B assay; conditions: NCI-H23, 48 h
[23] = tested on: NCI-H226; assay: Cytotoxicity against Homo sapiens (human) NCI-H226 cells after 48 hr by sulforhodamine B assay; conditions: NCI-H226, 48 h
[24] = tested on: M14; assay: Cytotoxicity against Homo sapiens (human) M14 cells after 48 hr by sulforhodamine B assay; conditions: M14, 48 h
[25] = tested on: NCI-H460; assay: Cytotoxicity against Homo sapiens (human) NCI-H460 cells assessed as cell growth at 10^-4 M after 48 hr by Alamar blue assay; conditions: NCI-H460, 48 h, read-out: Activity
[26] = tested on: OVCAR-8; assay: Cytotoxicity against Homo sapiens (human) OVCAR8 cells after 48 hr by sulforhodamine B assay; conditions: OVCAR-8, 48 h
[27] = tested on: SK-MEL-28; assay: Cytotoxicity against Homo sapiens (human) SK-MEL-28 cells after 48 hr by sulforhodamine B assay; conditions: SK-MEL-28, 48 h
[28] = read-out: LC50 (the source's name)

With ClCc1ccccc1Cn1cnc2c(Cl)ncnc21 the GI50 [1] was 3.02 µM, the LC50 [1] was 36.3 µM and the TGI [1] was 9.55 µM. The GI50 [2] was 1.82 µM, the TGI [2] was 7.24 µM and the CC50 [2, 28] was greater than 100 µM. The GI50 [3] was 1.48 µM, the TGI [3] was 4.26 µM and the CC50 [3, 28] was 21.4 µM. The GI50 [4] was 10.7 µM, the LC50 (concentration killing 50% of cells) [4] was 66.1 µM and the TGI [4] was 26.3 µM. For the same molecule, the GI50 [5] was 2.63 µM, the LC50 (concentration killing 50% of cells) [5] was 61.7 µM and the TGI [5] was 6.16 µM. The GI50 [6] was 2.18 µM, the LC50 (concentration killing 50% of cells) [6] was 10.5 µM and the TGI [6] was 4.67 µM. The GI50 [7] was 2.88 µM, the TGI [7] was 11 µM and the CC50 [7, 28] was 39.8 µM. The GI50 [8] was 2.29 µM, the LC50 [8] was 56.2 µM and the TGI [8] was 6.6 µM. It also gave a GI50 [9] of 2.45 µM, a TGI [9] of 6.6 µM and a CC50 [9, 28] of 25.7 µM. It also gave a GI50 [10] of 22.9 µM, a TGI [10] of 46.8 µM and a CC50 [10, 28] of 95.5 µM. For the same molecule, the GI50 [11] was 15.5 µM, the TGI [11] was 44.7 µM and the CC50 [11, 28] was greater than 100 µM. It also gave a GI50 [12] of 3.23 µM, a TGI [12] of 10.9 µM and a CC50 [12, 28] greater than 100 µM. For the same molecule, the GI50 [13] was 3.38 µM, the LC50 (50% lethal concentration) [13] was 95.5 µM and the TGI [13] was 8.71 µM. It also gave a GI50 [14] of 1.99 µM, an LC50 (50% lethal concentration) [14] of 19.9 µM and a TGI [14] of 5.49 µM. For the same molecule, the GI50 [15] was 11 µM, the LC50 (concentration killing 50% of cells) [15] was greater than 100 µM and the TGI [15] was greater than 100 µM. It also gave a GI50 [16] of 1.82 µM, a TGI [16] of 4.17 µM and a CC50 [16, 28] of 9.33 µM. The GI50 [17] was 5.37 µM, the LC50 [17] was greater than 100 µM and the TGI [17] was greater than 100 µM. It also gave a GI50 [18] of 1.2 µM, a TGI [18] of 5.12 µM and a CC50 [18, 28] greater than 100 µM. The GI50 [19] was 3.54 µM, the TGI [19] was greater than 100 µM and the CC50 [19, 28] was greater than 100 µM. It also gave a growth at 100 µM [20] of 43%, a GI50 [21] of 3.89 µM and a TGI [21] greater than 100 µM. For the same molecule, the CC50 [21, 28] was greater than 100 µM, the GI50 [22] was 2.04 µM and the TGI [22] was 4.36 µM. It also gave a CC50 [22, 28] of 9.33 µM, a GI50 [23] of 4.57 µM and a TGI [23] of 12.6 µM. It also gave a CC50 [23, 28] of 38.9 µM, a GI50 [24] of 1.95 µM and an LC50 [24] of 7.24 µM. The TGI [24] was 3.71 µM, the growth at 100 µM [25] was 0% and the GI50 [26] was 2.24 µM. The LC50 (concentration killing 50% of cells) [26] was 20.4 µM, the TGI [26] was 5.24 µM and the GI50 [27] was 2.29 µM. It also gave an LC50 (concentration killing 50% of cells) [27] of 24.6 µM and a TGI [27] of 5.49 µM.
